Activity data for eleven molecules are collected here from ChEMBL document CHEMBL1146309, “Tetrahydrobenzotriazines as a new class of nematocide” (2007).

SMILES strings stand for the structures.

In the assay the test system is Caenorhabditis elegans. Briefly: Nematocidal activity against Caenorhabditis elegans assessed as revised death rate after 24 to 48 hrs. Type of assay: functional. Further details: concentration or dose not given beside the values.
`CC1=CC=CC2(C)CN(C)N(C(=O)N(C)c3ccccc3)N=C12` (stereo unspecified): the Activity came out at 74.2%.
For the molecule `CC1=CC=CC2(C)CN(C)N(C(=S)Nc3ccccc3)N=C12` (stereo unspecified), the Activity is 20.9%.
Consider `CC1=CC=CC2(C)CN(C)N(C(=S)N(C)c3ccccc3)N=C12` (stereo unspecified), for which the Activity is reported as 100%.
To `CC(=O)N1N=C2C(C)=CC=CC2(C)CN1C` (stereo unspecified) belongs 100%.
In the case of `CCCCCCCC(=O)N1N=C2C(C)=CC=CC2(C)CN1C` (stereo unspecified), the Activity came to 10.3%.
Regarding `CCCCCCCCCC(=O)N1N=C2C(C)=CC=CC2(C)CN1C` (stereo unspecified), the Activity is 64.6%.
In the case of `CCCCCCCCCCC(=O)N1N=C2C(C)=CC=CC2(C)CN1C` (stereo unspecified), the Activity is listed as 20.3%.
To `CCCCCCCCCCCC(=O)N1N=C2C(C)=CC=CC2(C)CN1C` (stereo unspecified) belongs 17.2%; to `CCCCCCCCC(=O)N1N=C2C(C)=CC=CC2(C)CN1C` (stereo unspecified), 97%.
To `CC1=CC=CC2(C)CN(C)N(C(=O)Nc3ccccc3)N=C12` (stereo unspecified) belongs 43.8%.
To `CN=C=S` [METHYLISOTHIOCYANATE] belongs 100%.
